Among the data in patent US20240207267A1, “(R)-Glutarimide CRBN Ligands and Methods of Use” (BeiGene Switzerland GmbH, priority 2021, published 2024) are DC50, Dmax and IC50 values, retold here.

Holding throughout (format): cell-based
The target of test [1] is T1, BTK (TMD-8 cells) (Homo sapiens (Human), UniProt Q06187). In words: BTK degradation HTRF assay in TMD-8 cells (Test Example 1). The note with it: Table 3; for DC50: 6 h treatment, BTK degradation; for Dmax: TMD8, 6 h treatment, maximum percentage of BTK degradation. On the procedure: 1c). […] TMD-8 cells are treated with compounds diluted in 0.2% DMSO, dilution is done according to the following protocol: (1) make 500× stock solution in DMSO from 1 mM by 6-fold dilution, total 8 doses were included; (2) make 2× solution in cell culture medium by transferring 0.5 μl 500× stock solution into 125 μl medium; (3) 15 μl of 2× solution is added to cells and incubate for 6 h.
T1 sequence (Q06187 whole entry): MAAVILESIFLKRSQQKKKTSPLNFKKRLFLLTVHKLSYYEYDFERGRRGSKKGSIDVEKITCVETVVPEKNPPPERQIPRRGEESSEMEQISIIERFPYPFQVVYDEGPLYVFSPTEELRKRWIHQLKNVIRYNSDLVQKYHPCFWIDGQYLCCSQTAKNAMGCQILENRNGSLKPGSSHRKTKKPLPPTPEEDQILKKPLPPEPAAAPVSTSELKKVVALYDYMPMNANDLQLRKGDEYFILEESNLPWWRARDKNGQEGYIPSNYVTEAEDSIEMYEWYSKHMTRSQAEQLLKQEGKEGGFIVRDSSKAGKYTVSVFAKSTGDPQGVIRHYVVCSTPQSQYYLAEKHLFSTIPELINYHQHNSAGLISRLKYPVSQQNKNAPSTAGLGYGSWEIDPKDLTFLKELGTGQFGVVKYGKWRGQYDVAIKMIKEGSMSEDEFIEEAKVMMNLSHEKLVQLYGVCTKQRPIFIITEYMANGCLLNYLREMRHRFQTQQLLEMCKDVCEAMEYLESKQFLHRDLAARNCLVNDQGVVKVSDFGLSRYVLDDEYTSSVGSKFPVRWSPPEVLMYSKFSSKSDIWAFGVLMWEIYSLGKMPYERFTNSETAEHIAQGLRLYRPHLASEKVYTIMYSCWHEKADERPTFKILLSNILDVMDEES
After 6 h treatment, add 10 μl 4xlysis buffer to each well; seal the plate and incubate 30 min at room temperature on a plate shaker; Once the cells are lysed, 16 μL of cell lysate are transferred to a PE 384-well HTRF detection plate; 4 μL of pre-mixed HTRF antibodies are added to each well; Cover the plate with a plate sealer, spin 1000 rpm for 1 min, Incubate overnight at room temperature; Read on BMG PheraStar with HTRF protocol (337 nm-665 nm-620 nm).
(§1) The IC50 (DC50) value of a compound can be obtained by fitting the following equation
(§2) Y=Bottom+(TOP−Bottom)/(1+((IC50/X)^hillslope))
(§3) Wherein, X and Y are known values, and IC50, Hillslope, Top and Bottom are the parameters obtained by fitting with software. Y is the inhibition percentage (calculated from the equation), X is the concentration of the compound; IC50 is the concentration of the compound when the 50% inhibition is reached. The smaller the IC50 value is, the stronger the inhibitory ability of the compound is. Vice versa, the higher the IC50 value is, the weaker the ability the inhibitory ability of the compound is; Hillslope represents the slope of the fitted curve, generally around 1*; Bottom represents the minimum value of the curve obtained by data fitting, which is generally 0%±20%; Top represents the maximum value of the curve obtained by data fitting, which is generally 100%±20%. The experimental data were fitted by calculating and analyzing with Dotmatics data analysis software.
A general note: In TR-FRET formats the signal depends on donor and acceptor labels being close together.

The target of a further test is IRAKM (THP-1 cells) (Homo sapiens (Human), UniProt Q9Y616). Nature of the test: IRAKM degradation HTRF assay in THP-1 cells. The note with it: 6 h treatment. On the procedure: THP-1 cells are treated with compounds diluted in 0.2% DMSO, dilution is done according to the following protocol: (1) make 500× stock solution in DMSO from 5 mM by 5-fold dilution, total 8 doses were included; (2) make 2× solution in cell culture medium by transferring 0.5 μl 500× stock solution into 125 μl medium; (3) 15 μl of 2× solution is added to cells and incubate for 6 h.
Sequence of IRAKM (THP-1 cells) (Q9Y616 whole entry): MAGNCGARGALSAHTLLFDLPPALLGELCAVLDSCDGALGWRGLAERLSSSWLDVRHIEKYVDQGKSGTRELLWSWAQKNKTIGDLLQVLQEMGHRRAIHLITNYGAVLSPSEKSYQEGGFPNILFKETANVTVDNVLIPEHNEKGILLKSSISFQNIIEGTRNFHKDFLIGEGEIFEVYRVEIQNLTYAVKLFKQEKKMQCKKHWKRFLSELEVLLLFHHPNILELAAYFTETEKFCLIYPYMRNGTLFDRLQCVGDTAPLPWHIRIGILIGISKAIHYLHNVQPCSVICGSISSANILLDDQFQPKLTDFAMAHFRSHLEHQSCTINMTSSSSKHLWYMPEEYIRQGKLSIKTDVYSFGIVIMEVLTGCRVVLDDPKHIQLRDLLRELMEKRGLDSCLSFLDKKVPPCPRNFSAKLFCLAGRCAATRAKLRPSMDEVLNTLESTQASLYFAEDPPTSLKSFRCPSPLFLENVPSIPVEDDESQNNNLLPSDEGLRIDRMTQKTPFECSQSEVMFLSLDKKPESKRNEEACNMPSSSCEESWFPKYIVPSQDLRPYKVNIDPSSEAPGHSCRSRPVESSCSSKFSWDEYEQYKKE
After 6 h treatment, add 10 μl 4xlysis buffer to each well; seal the plate and incubate 1 hour at room temperature on a plate shaker; Once the cells are lysed, 16 μL of cell lysate are transferred to a PE 384-well HTRF detection plate(for triple mutant cells, the lysate were diluted by the qual volume 1xlysis buffer before transfer); 4 μL of pre-mixed HTRF antibodies are added to each well; Cover the plate with a plate sealer, spin 1000 rpm for 1 min, Incubate overnight at room temperature; Read on BMG PheraStar with HTRF protocol (337 nm-665 nm-620 nm).
as §1, §2
Wherein, X and Y are known values, and IC50, Hillslope, Top and Bottom are the parameters obtained by fitting with software. Y is the inhibition percentage (calculated from the equation), X is the concentration of the compound; IC50 is the concentration of the compound when the 50% inhibition is reached. […]

Test [2] concerns the target T1, BTK (TMD-8 cells). In words: BTK degradation HTRF assay in TMD-8 cells (Test Example 3). The following applies: 6 h treatment, Table 5. How it is done:
TMD-8 cells were treated with compounds diluted in 0.2% DMSO, dilution was done according to the following protocol: (1) making 500× stock solution in DMSO from 1 mM by 6-fold dilution, total 8 doses were included; (2) making 2× solution in cell culture medium by transferring 0.5 μl 500× stock solution into […]; (3) adding 15 μl of 2× solution to cells for incubation of 6 h.
After 6 h treatment, 10 μl 4xlysis buffer was added to each well; the plate was sealed and incubated for 30 min at room temperature on a plate shaker; Once the cells was lysed, 16 μL of cell lysate were transferred to a PE 384-well HTRF detection plate; 4 μL of pre-mixed HTRF antibodies were added to each well; the plate was covered with a plate sealer, and then spinned at 1000 rpm for 1 min, then incubated overnight at room temperature; the results were read on BMG PheraStar with HTRF protocol (337 nm-665 nm-620 nm).
as §1, §2
as §3, with “wherein,” for “Wherein,”

The subject of a further test is HEK-293 cells. Nature of the test: HEK-293 cytotoxicity detection (CellTiter-Glo). The following applies: Homo sapiens, HEK293, 72 h incubation. On the procedure:
HEK-293 cells were treated with compounds diluted in 0.2% DMSO, dilution was done according to the following protocol: (1) making 500× stock solution in DMSO from 5 mM by 4-fold dilution, total 8 doses were included; (2) making 2× solution in cell culture medium by transferring 0.5ul 500× stock solution into 125ul medium; (3) adding 50ul of 2× solution to cells for incubation of 72 h.
25 μl of the CellTiter-Glo®Reagent [(Promega) - Cat No. G7572] was added to each well in the 96-well plate. The contents were mixed for 2 minutes on an orbital shaker to induce cell lysis. The plate was then allowed to incubate at room temperature for 10 minutes to stabilize luminescent signal. Luminescence was recorded on BMG PheraStar with luminescence protocol.
The IC50 value of a compound can be obtained by fitting the following equation
as §2, §3
(In ATP-based viability assays light output follows the ATP content of the culture.)

At BTK (TMD-8 cells) [1], `Cc1cc(-c2n[nH]c3ncc(-c4ccc(C5CCN(CCc6cc(F)c([C@H]7CCC(=O)NC7=O)c(F)c6)CC5)cc4)cc23)ccc1CNC(=O)c1nc(C(C)(C)C)no1` [Example 32, (R)-3-(tert-butyl)-N-(4-(5-(4-(1-(4-(2,6-dioxopiperidin-3-yl)-3,5-difluorophenethyl)piperidin-4-yl)phenyl)-1H-pyrazolo[3,4-b]pyridin-3-yl)-2-methylbenzyl)-1,2,4-oxadiazole-5-carboxamide] showed a 50% degradation concentration (DC50) of 5.33 nM and a Dmax of 97.4%.

As for `Cc1cc(-c2n[nH]c3ncc(-c4ccc(C5CCN(CCc6ccc(C7CCC(=O)NC7=O)cc6)CC5)cc4)cc23)ccc1CNC(=O)c1nc(C(C)(C)C)no1` (stereo not drawn) [Example 31, 3-(tert-butyl)-N-(4-(5-(4-(1-(4-(2,6-dioxopiperidin-3-yl)phenethyl)piperidin-4-yl)phenyl)-1H-pyrazolo[3,4-b]pyridin-3-yl)-2-methylbenzyl)-1,2,4-oxadiazole-5-carboxamide], at BTK (TMD-8 cells) [1], the 50% degradation concentration (DC50) is > 2000 nM and the Dmax is 12%.

`CCc1nc(C(N)=O)c(Nc2ccc(N3CCC(N4CCN(CCc5cc(F)c(C6CCC(=O)NC6=O)c(F)c5)CC4)CC3)c(OC)c2)nc1NC1CCOCC1` (stereo not drawn) [Example D42, 3-((4-(4-(4-(4-(2,6-dioxopiperidin-3-yl)-3,5-difluorophenethyl)piperazin-1-yl)piperidin-1-yl)-3-methoxyphenyl)amino)-6-ethyl-5-((tetrahydro-2H-pyran-4-yl)amino)pyrazine-2-carboxamide]: half-maximal degradation on IRAKM (THP-1 cells) (DC50) was put at 2.8 nM.

The compound `Cc1cccc(NC(=O)c2ccc(-c3nn4c(c3C(N)=O)Nc3ccc(N5CCN(CCc6cc(F)c([C@H]7CCC(=O)NC7=O)c(F)c6)CC5)cc3CC4)c(F)c2C)n1` [Example B35, (R)-7-(4-(4-(2,6-dioxopiperidin-3-yl)-3,5-difluorophenethyl)piperazin-1-yl)-2-(2-fluoro-3-methyl-4-((6-methylpyridin-2-yl)carbamoyl)phenyl)-9,10-dihydro-4H-benzo[d]pyrazolo[1,5-a][1,3]diazepine-3-carboxamide] displayed a DC50 on BTK (TMD-8 cells) [2] of 2.32 nM. The 50% inhibitory concentration (IC50) with HEK-293 cells is > 10000 nM.

Consider `Cc1c(C(=O)Nc2cscn2)ccc(-c2nn3c(c2C(N)=O)Nc2ccc(N4CCN(CCc5cc(F)c([C@H]6CCC(=O)NC6=O)c(F)c5)CC4)cc2CC3)c1F` [Example B38, (R)-7-(4-(4-(2,6-dioxopiperidin-3-yl)-3,5-difluorophenethyl)piperazin-1-yl)-2-(2-fluoro-3-methyl-4-(thiazol-4-ylcarbamoyl)phenyl)-9,10-dihydro-4H-benzo[d]pyrazolo[1,5-a][1,3]diazepine-3-carboxamide], for which the 50% degradation concentration (DC50) on BTK (TMD-8 cells) [2] is 1.7 nM. Moreover, the half-maximal inhibitory concentration (IC50) in the test on HEK-293 cells came out at 26.8 nM.

As a reminder, the DC50 is the concentration at which degradation of the target reaches its halfway point. In general, Dmax refers to the greatest extent of degradation seen. For orientation: IC50 means the concentration needed to halve the response being measured.
